3 compounds from patent publication US20110280940A1, “Di-Vanilloyl And Tri-Vanilloyl Derivatives For Use In Anti-Cancer Therapy” (priority 2008, published 2011) can be followed below.

One test deals with T1, CDK2/cyclin A (Homo sapiens, UniProt P24941).
T1 construct: made in house
Put plainly: Kinase activity assay, CDK2A. The test is classed as biochemical. The conditions noted are these: 10 μM, 1% DMSO, 15 μM ATP; residual activity. As for the experimental part: Buffer A: 10 mM MgCl2, 1 mM EGTA, 1 mM DTT, 25 mM Tris-HCl pH 7.5, 50 μg heparin/ml. Buffer C: 60 mM β-glycerophosphate, 15 mM p-nitrophenylphosphate, 25 mM Mops (pH 7.2), 5 mM EGTA, 15 mM MgCl2, 1 mM DTT, 1 mM sodium vanadate, 1 mM phenyl phosphate.
Kinase activities were assayed in Buffer A or C, at 30° C., at a final ATP concentration of 15 μM. Blank values were subtracted and activities expressed in % of the maximal activity, i.e. in the absence of inhibitors. Controls were performed with appropriate dilutions of DMSO.
CDK1/cyclin B (M phase starfish oocytes, native), CDK2/cyclin A, CDK2/cyclin E, CDK5/p25 and CDK7/cyclin H (human, recombinant) were prepared as previously described (Leclerc et al., 2001, J. Biol. Chem. 2001, 276, 251-260; Bach et al., 2005, J Biol Chem 280: 31208-31219). Their kinase activity was assayed in buffer C, with 1 mg histone H1/ml, in the presence of 15 μM [gamma-^33P] ATP (3,000 Ci/mmol; 10 mCi/ml) in a final volume of 30 μl. After 30 min incubation at 30° C., 25 μl aliquots of supernatant were spotted onto 2.5×3 cm pieces of Whatman P81 phosphocellulose paper, and, 20 sec later, the filters were washed five times (for at least 5 min each time) in a solution of 10 ml phosphoric acid/liter of water. The wet filters were counted in the presence of 1 ml ACS (Amersham) scintillation fluid.

In a further test the test system is Aurora kinases. Put plainly: Kinase inhibition profile of DLT11 at 20 μM, Aurora kinases. The test is classed as biochemical, human. The settings on record: 20 μM (FIG. 3). As for the experimental part: The kinase inhibition profile of DLT11 at 20 μM was determined using 250 protein kinases. Residual activity values were measured by testing each compound at one concentration in duplicate in each kinase assay. A radiometric protein kinase assay (33 PanQinase®Activity Assay) was used for measuring the kinase activity of 250 protein kinases. All kinase assays were performed in 96-well flashPlates™ from Perkin Elmer (Boston, Mass., USA) in a 50 μl reaction volume. The reaction cocktail was pipetted in 4 steps in the following order: • 10 μl of non-radioactive ATP solution (in H2O) • 25 μl of assay buffer/[γ-33P]-ATP mixture • 5 μl of test sample in 10% DMSO • 10 μl of enzyme/substrate mixture […]
(§1) Incorporation of ^33Pi (counting of “cpm”) was determined with a microplate scintillation counter (Microbeta, Wallac).
For each kinase, the median value of the cpm of three wells with complete reaction cocktails, but without kinase, was defined as “low control” (n=3). This value reflects unspecific binding of radioactivity to the plate in the absence of protein kinase but in the presence of the substrate. […] The residual activity (in %) for each compound well was calculated by using the following formula: Res. Activity (%)=100×[(cpm of compound−low control)/(high control−low control)]

For a further test, the system named is 255 protein kinases. Put plainly: Kinase inhibition profile of DLT95-Cl at 20 μM (33 PanQinase). The test is classed as biochemical, human. The conditions noted are these: over the 255 kinases screened. The procedure: In view of the results in FIG. 5 and Table 7, the inventors performed a broader analysis on impairment of 255 protein kinases by DLT95-Cl compound of the invention.
255 kinases where tested with DLT95-Cl at 20 μM to establish the kinase inhibition profile of the compound.
The kinase inhibition profile of DLT95-Cl at 20 μM was determined using 255 protein kinases. Residual activity values were measured by testing each compound at one concentration in duplicate in each kinase assay. A radiometric protein kinase assay (33 PanQinase®Activity Assay) was used for measuring the kinase activity of 250 protein kinases. All kinase assays were performed in 96-well flashPlates™ from Perkin Elmer (Boston, Mass., USA) in a 50 μl reaction volume. […]
as §1
For each kinase, the median value of the cpm of three wells with complete reaction cocktails, but without kinase, was defined as “low control” (n=2). This value reflects unspecific binding of radioactivity to the plate in the absence of protein kinase but in the presence of the substrate. […] The residual activity (in %) for each compound well was calculated by using the following formula: Res. Activity (%)=100×[(cpm of compound−low control)/(high control−low control)]

Turning to `COc1cc(C(=O)OCCOC(=O)c2ccc(O)c(OC)c2)ccc1O` [DLT1, Ethane-1,2-diyl bis-(4-hydroxy-3-methoxybenzoate)], the “% ENZYMATIC ACTIVITY, CDK2A” value at CDK2/cyclin A stood at 91%. For `COc1cc(C(=O)OCCCCCCOC(=O)c2ccc(O)c(OC)c2)ccc1O` [DLT11, Hexane-1,6-diyl bis-(4-hydroxy-3-methoxybenzoate)], in the test on Aurora kinases, the “inhibition of 2 Aurora kinases” value is given as “more than 80%”. Take `O=C(OCc1cc(COC(=O)c2ccc(O)c(Cl)c2)cc(COC(=O)c2ccc(O)c(Cl)c2)c1)c1ccc(O)c(Cl)c1` [DLT95-Cl, [3,5-bis[(4-hydroxy-3-chloro-benzoyl)oxymethyl]phenyl]methyl 4-hydroxy-3-chloro-benzoate]: the “number of kinases whose activity is ≧50% impaired” value in the test with 255 protein kinases stood at 249.
